Calls of active or inactive are those of the source. No cut-off for these calls is given here.
Assays:
SW480 = test: Induction of cellular DNA damage PARylation in human SW480 cells at >100 uM by Western blot analysis; assay type: functional, cell-based
[1] = Aqueous solubility of the compound in phosphate buffer at pH 7.4; assay type: physicochemical
[2] = Intrinsic clearance in mouse liver microsomes assessed per mg of protein; assay type: ADME; details: read-out: CLH
[3] = Intrinsic clearance in human liver microsomes assessed per mg of protein; assay type: ADME; details: read-out: CLH

solubility [1] | microsomal CLint [2] | microsomal CLint [3] | Compound | Activity (SW480)
> 100 µM | 10 µL/min/mg | 5 µL/min/mg | Cc1cccc2c(=O)[nH]c(-c3ccc(CN4CCC(N(C)C)CC4)cc3)cc12 | Active
> 100 µM |  |  | COc1cccc2c(=O)[nH]c(-c3ccc(CN(C)C)cc3)cc12 | 
> 100 µM |  |  | CN(C)Cc1ccc(-c2cc3ccccc3c(=O)[nH]2)cc1 | 

From ChEMBL document CHEMBL3763048, “Design and discovery of 3-aryl-5-substituted-isoquinolin-1-ones as potent tankyrase inhibitors” (Medchemcomm, 2015)
